Assay results from patent US9708336B2, “Metallo-beta-lactamase inhibitors” (priority 2014, dated 2017).
Where two headings read alike, the source gives them in different places.

Key:
NDM-1 = NDM-1 (Klebsiella pneumoniae, UniProt C7C422); experiment: biochemical; assay type: biochemical; settings: read-out: NDM-1 IC50
IMP-1 = IMP-1 (Serratia marcescens, UniProt P52699); experiment: biochemical; assay type: biochemical; settings: read-out: IMP-1 IC50
Experimental: Enzyme Activity: Determination of IC50
The Class B enzyme activities were measured in the presence of the test inhibitor in a fluorescence assay against a commercially available substrate consisting of a cephalosporin core linking 7-hydroxycoumarin to fluorescein (CCF2-FA). The enzyme (NDM-1, IMP-1 or VIM-1) and the substrate were diluted in 100 mM KH2PO4 buffer (pH 7) containing 0.005% Tween-20 and 10 μM ZnSO4. […] The test inhibitor was dissolved in dimethylsulfoxide and diluted 1:50 in the assay, resulting in a final concentration range of 20 uM to 0.00063 uM. In a 384-well microplate, the test inhibitor was incubated with the metallo-β-lactamase enzyme and the substrate for 2 hours at 25° C. Fluorescence at 460 nm following excitation at 405 nm was measured. The IC50 value was determined from semi-logarithmic plots of enzyme inhibition versus inhibitor concentration, with a curve generated using a 4-parameter fit.

VIM-1 = VIM-1 (Pseudomonas aeruginosa (strain ATCC 15692 / DSM 22644 / CIP 104116 / JCM 14847 / LMG 12228 / 1C / PRS 101 / PAO1), UniProt A0A0F7KYQ8); experiment: Enzyme activity: determination of IC50, fluorescence assay with CCF2-FA substrate (VIM-1); assay type: biochemical
[1] = test system: Escherichia coli expressing NDM-1 (CLB30005); experiment: Antibiotic potentiation activity: synergistic concentration (MITC95) with imipenem, OD600 growth; assay type: cell-based; settings: for Escherichia coli expressing NDM-1 (CLB 30005) MITC95: concentration giving 95% inhibition of bacterial growth; for Escherichia coli MITC95: Escherichia coli expressing NDM-1 (CLB30005), 95% growth inhibition
Method in brief: (§1)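 Imipenem (4 μg/ml final; 1 μg/ml as an option) was combined with compound against isolates diluted 1:100 from saline suspensions into 1.1× CAMHB. Growth was assessed by absorbance at 22–24 h, 35 °C.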

[2] = test system: Klebsiella pneumoniae expressing VIM-1 (IHMA599644); experiment: as above; assay type: cell-based; settings: for Klebsiella pneumoniae expressing VIM-1 (IHMA 599644) MITC95: concentration giving 95% inhibition of bacterial growth; for Klebsiella pneumoniae MITC95: Klebsiella pneumoniae expressing VIM-1 (IHMA599644), 95% growth inhibition
Method in brief: as §1

[3] = test system: Serratia marcescens expressing IMP-1 (CL5741); experiment: as above; assay type: cell-based; settings: for Serratia marcescens expressing IMP-1 (CL5741) MITC95: concentration giving 95% inhibition of bacterial growth; for Serratia marcescens MITC95: Serratia marcescens expressing IMP-1 (CL5741), 95% growth inhibition
Method in brief: as §1

[4] = fluorescence assay with CCF2-FA substrate
[5] = VIM-1 IC50, fluorescence assay with CCF2-FA substrate
[6] = fluorescence assay with CCF2-FA substrate, read-out: VIM-1 IC50
[7] = NDM-1 enzyme, CCF2-FA fluorescence assay
[8] = IMP-1 enzyme, CCF2-FA fluorescence assay
[9] = VIM-1 enzyme, CCF2-FA fluorescence assay, read-out: VIM-1 IC50

Sequence of IMP-1 (P52699 whole entry, looked up): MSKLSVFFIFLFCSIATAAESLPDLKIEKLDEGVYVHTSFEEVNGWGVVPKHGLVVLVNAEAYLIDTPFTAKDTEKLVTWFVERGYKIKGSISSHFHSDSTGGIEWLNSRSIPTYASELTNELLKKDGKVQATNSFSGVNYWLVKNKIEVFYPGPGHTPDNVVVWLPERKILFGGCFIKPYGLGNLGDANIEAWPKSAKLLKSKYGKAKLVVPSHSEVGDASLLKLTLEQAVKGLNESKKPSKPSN
Sequence of NDM-1 (C7C422 whole entry, looked up, species assumed): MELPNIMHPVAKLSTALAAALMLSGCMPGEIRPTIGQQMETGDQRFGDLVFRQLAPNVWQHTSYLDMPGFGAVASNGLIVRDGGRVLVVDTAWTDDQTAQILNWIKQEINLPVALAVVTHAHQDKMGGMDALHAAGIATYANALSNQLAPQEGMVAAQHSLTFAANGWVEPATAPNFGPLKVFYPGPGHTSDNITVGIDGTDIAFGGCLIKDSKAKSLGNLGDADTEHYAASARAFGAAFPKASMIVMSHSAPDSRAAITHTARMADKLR

## NS(=O)(=O)c1cccc(-c2ccc3[nH]nnc3c2)c1-c1nn[nH]n1 [Example 74, 3-(1H-benzotriazol-5-yl)-2-(2H-tetrazol-5-yl)benzenesulfonamide]
NDM-1; [4]
  IC50: 26.4 nM
IMP-1; [4]
  IC50: 1610 nM
VIM-1; [5]
  IC50: 475 nM
[1]
  Escherichia coli expressing NDM-1 (CLB 30005) MITC95: 0.9766 µM
[2]
  Klebsiella pneumoniae expressing VIM-1 (IHMA 599644) MITC95: 50 µM
[3]
  Serratia marcescens expressing IMP-1 (CL5741) MITC95: 18.75 µM

## NS(=O)(=O)c1nccc(-c2ccncc2)c1-c1nnn[nH]1 [Example 194, 3-(1H-tetrazol-5-yl)-[4,4′-bipyridine]-2-sulfonamide]
NDM-1; [4]
  IC50: 248 nM
IMP-1; [4]
  IC50: 2270 nM
VIM-1; [6]
  IC50: 907 nM
[1]
  Escherichia coli expressing NDM-1 (CLB 30005) MITC95: 0.7813 µM
[2]
  Klebsiella pneumoniae expressing VIM-1 (IHMA 599644) MITC95: 62.5 µM
[3]
  Serratia marcescens expressing IMP-1 (CL5741) MITC95: 75 µM

## Cc1nc(F)ccc1-c1cccc(S(N)(=O)=O)c1-c1nn[nH]n1 [Example 79, 3-(6-fluoro-2-methylpyridin-3-yl)-2-(2H-tetrazol-5-yl)benzenesulfonamide]
NDM-1; [4]
  IC50: 48.6 nM
IMP-1; [4]
  IC50: 3970 nM
VIM-1; [5]
  IC50: 60.2 nM
[1]
  Escherichia coli expressing NDM-1 (CLB 30005) MITC95: 1.563 µM
[2]
  Klebsiella pneumoniae expressing VIM-1 (IHMA 599644) MITC95: 25 µM
[3]
  Serratia marcescens expressing IMP-1 (CL5741) MITC95: 150 µM

## NS(=O)(=O)c1cccc(-c2ccc(C(=O)N3CCOCC3)cc2)c1-c1nn[nH]n1 [Example 10, 4′-(morpholin-4-ylcarbonyl)-2-(2H-tetrazol-5-yl)biphenyl-3-sulfonamide]
NDM-1; [4]
  IC50: 3.7 nM
IMP-1; [4]
  IC50: 62.6 nM
VIM-1; [6]
  IC50: 986 nM
[1]
  Escherichia coli expressing NDM-1 (CLB 30005) MITC95: 3.125 µM
[2]
  Klebsiella pneumoniae expressing VIM-1 (IHMA 599644) MITC95: >200 µM
[3]
  Serratia marcescens expressing IMP-1 (CL5741) MITC95: 6.25 µM

## NS(=O)(=O)c1nccc(N2CCC3(CCNCC3)CC2)c1-c1nn[nH]n1 [Example 245, 4-(3,9-diazaspiro[5.5]undecan-3-yl)-3-(2H-tetrazol-5-yl)pyridine-2-sulfonamide]
NDM-1; [7]
  IC50: 266 nM
IMP-1; [8]
  IC50: 9780 nM
VIM-1; [9]
  IC50: 460 nM
[1]
  Escherichia coli MITC95: 0.3906 µM
[2]
  Klebsiella pneumoniae MITC95: 12.5 µM
[3]
  Serratia marcescens MITC95: 50 µM

## NS(=O)(=O)c1cccc(-c2ccc3ccncc3c2)c1-c1nn[nH]n1 [Example 71, 3-isoquinolin-7-yl-2-(2H-tetrazol-5-yl)benzenesulfonamide]
NDM-1; [4]
  IC50: 1.22 nM
IMP-1; [4]
  IC50: 78.6 nM
VIM-1; [6]
  IC50: 14.5 nM
[1]
  Escherichia coli expressing NDM-1 (CLB 30005) MITC95: 0.7813 µM
[2]
  Klebsiella pneumoniae expressing VIM-1 (IHMA 599644) MITC95: 75 µM
[3]
  Serratia marcescens expressing IMP-1 (CL5741) MITC95: 18.75 µM

## NCc1ccc(-c2cccc(S(N)(=O)=O)c2-c2nnn[nH]2)cn1 [Example 306, 3-(6-(aminomethyl)pyridin-3-yl)-2-(1H-tetrazol-5-yl)benzenesulfonamide]
NDM-1; [7]
  IC50: 104 nM
IMP-1; [8]
  IC50: 3740 nM
VIM-1; [9]
  IC50: 300 nM
[1]
  Escherichia coli MITC95: 1.172 µM
[2]
  Klebsiella pneumoniae MITC95: 25 µM
[3]
  Serratia marcescens MITC95: 50 µM

## CCN(CC)C(=O)c1ccc(-c2cccc(S(N)(=O)=O)c2-c2nn[nH]n2)cc1 [Example 9, N,N-diethyl-3′-sulfamoyl-2′-(2H-tetrazol-5-yl)biphenyl-4-carboxamide]
NDM-1; [4]
  IC50: 1.48 nM
IMP-1; [4]
  IC50: 17.2 nM
VIM-1; [6]
  IC50: 277 nM
[1]
  Escherichia coli expressing NDM-1 (CLB 30005) MITC95: 3.125 µM
[2]
  Klebsiella pneumoniae expressing VIM-1 (IHMA 599644) MITC95: >200 µM
[3]
  Serratia marcescens expressing IMP-1 (CL5741) MITC95: 12.5 µM

## Cc1ccc(-c2cc(-c3cnn(C)c3)cc(S(N)(=O)=O)c2-c2nn[nH]n2)cc1 [Example 291, 4′-methyl-5-(1-methyl-1H-pyrazol-4-yl)-2-(2H-tetrazol-5-yl)-[1,1′-biphenyl]-3-sulfonamide]
NDM-1; [7]
  IC50: 1.47 nM
IMP-1; [8]
  IC50: 98.6 nM
VIM-1; [9]
  IC50: 222 nM
[1]
  Escherichia coli MITC95: 3.906 µM
[2]
  Klebsiella pneumoniae MITC95: >200 µM
[3]
  Serratia marcescens MITC95: 4.688 µM

## N#CC1(c2ccc(-c3cccc(S(N)(=O)=O)c3-c3nnn[nH]3)cc2)CCOCC1 [Example 25, 4′-(4-cyanotetrahydro-2H-pyran-4-yl)-2-(1H-tetrazol-5-yl)biphenyl-3-sulfonamide]
NDM-1; [4]
  IC50: < 0.637 nM
IMP-1; [4]
  IC50: 3.6 nM
VIM-1; [6]
  IC50: 45.5 nM
[1]
  Escherichia coli expressing NDM-1 (CLB 30005) MITC95: 3.125 µM
[2]
  Klebsiella pneumoniae expressing VIM-1 (IHMA 599644) MITC95: >200 µM
[3]
  Serratia marcescens expressing IMP-1 (CL5741) MITC95: 12.5 µM

## NS(=O)(=O)c1cccc(-c2ccc(C(O)C(F)(F)F)cc2)c1-c1nn[nH]n1 (centres unmarked) [Example 3, 2(2H-tetrazol-5-yl)4′-(2,2,2-trifluoro-1-hydroxyethyl)biphenyl-3-sulfonamide]
NDM-1; [4]
  IC50: 1.49 nM
IMP-1; [4]
  IC50: 8.92 nM
VIM-1; [6]
  IC50: 39.9 nM
[1]
  Escherichia coli expressing NDM-1 (CLB 30005) MITC95: 0.7813 µM
[2]
  Klebsiella pneumoniae expressing VIM-1 (IHMA 599644) MITC95: 200 µM
[3]
  Serratia marcescens expressing IMP-1 (CL5741) MITC95: 1.563 µM

## NS(=O)(=O)c1cccc(-c2cnn(Cc3ccncc3)c2)c1-c1nn[nH]n1 [Example 100, 3-[1-(pyridin-4-ylmethyl)-1H-pyrazol-4-yl]-2-(2H-tetrazol-5-yl)benzenesulfonamide]
NDM-1; [4]
  IC50: 29.6 nM
IMP-1; [4]
  IC50: 146 nM
VIM-1; [6]
  IC50: 940 nM
[1]
  Escherichia coli expressing NDM-1 (CLB 30005) MITC95: 7.031 µM
[2]
  Klebsiella pneumoniae expressing VIM-1 (IHMA 599644) MITC95: >200 µM
[3]
  Serratia marcescens expressing IMP-1 (CL5741) MITC95: 14.06 µM

## NS(=O)(=O)c1cncc(-c2ccc(CO)cc2)c1-c1nnn[nH]1 [Example 189, 5-(4-(Hydroxymethyl)phenyl)-4-(1H-tetrazol-5-yl)pyridine-3-sulfonamide]
NDM-1; [4]
  IC50: 23.2 nM
IMP-1; [4]
  IC50: 704 nM
VIM-1; [5]
  IC50: 685 nM
[1]
  Escherichia coli expressing NDM-1 (CLB 30005) MITC95: 1.563 µM
[2]
  Klebsiella pneumoniae expressing VIM-1 (IHMA 599644) MITC95: 100 µM

## NS(=O)(=O)c1cccc(-c2ccccn2)c1-c1nn[nH]n1 [Example 93, 3-pyridin-2-yl-2-(2H-tetrazol-5-yl)benzenesulfonamide]
NDM-1; [4]
  IC50: 3.17 nM
IMP-1; [4]
  IC50: 331 nM
VIM-1; [6]
  IC50: 89.8 nM
[1]
  Escherichia coli expressing NDM-1 (CLB 30005) MITC95: 0.7813 µM
[2]
  Klebsiella pneumoniae expressing VIM-1 (IHMA 599644) MITC95: 25 µM

## CN(C)c1ccc(-c2ccnc(S(N)(=O)=O)c2-c2nn[nH]n2)cn1 [Example 211, 6-(dimethylamino)-3′-(2H-tetrazol-5-yl)-[3,4′-bipyridine]-2′-sulfonamide]
NDM-1; [4]
  IC50: 45.6 nM
IMP-1; [4]
  IC50: 537 nM
[1]
  Escherichia coli expressing NDM-1 (CLB 30005) MITC95: 0.3906 µM
[2]
  Klebsiella pneumoniae expressing VIM-1 (IHMA 599644) MITC95: 200 µM
[3]
  Serratia marcescens expressing IMP-1 (CL5741) MITC95: 31.25 µM

## NS(=O)(=O)c1nccc(-c2ccc(C(=O)NC3CCOCC3)cc2)c1-c1nnn[nH]1 [Example 186, 4-(2-Sulfamoyl-3-(1H-tetrazol-5-yl)pyridin-4-yl)-N-(tetrahydro-2H-pyran-4-yl)benzamide]
NDM-1; [4]
  IC50: 97.1 nM
IMP-1; [4]
  IC50: 564 nM
[1]
  Escherichia coli expressing NDM-1 (CLB 30005) MITC95: 18.75 µM
[2]
  Klebsiella pneumoniae expressing VIM-1 (IHMA 599644) MITC95: >200 µM
[3]
  Serratia marcescens expressing IMP-1 (CL5741) MITC95: 100 µM

## CN(C(=O)c1ccc(-c2cccc(S(N)(=O)=O)c2-c2nn[nH]n2)cc1)C1CCOCC1 [Example 77, N-methyl-3′-sulfamoyl-N-(tetrahydro-2H-pyran-4-yl)-2′-(2H-tetrazol-5-yl)biphenyl-4-carboxamide]
NDM-1; [4]
  IC50: 12 nM
IMP-1; [4]
  IC50: 53.8 nM
[1]
  Escherichia coli expressing NDM-1 (CLB 30005) MITC95: 9.375 µM
[2]
  Klebsiella pneumoniae expressing VIM-1 (IHMA 599644) MITC95: >200 µM
[3]
  Serratia marcescens expressing IMP-1 (CL5741) MITC95: 28.13 µM

## NS(=O)(=O)c1ccc(O)cc1-c1nn[nH]n1 [Example 254]
VIM-1; [9]
  IC50: 20000 nM
[1]
  Escherichia coli MITC95: 3.125 µM
[2]
  Klebsiella pneumoniae MITC95: >200 µM
[3]
  Serratia marcescens MITC95: >200 µM
